System: COVID-19 infection
Type: in vivo
Details: one subject
[1] = confirmed COVID-19, furosemide orally twice daily, 40 mg mornings and 20 mg at 6 hours interval, for 3 days

NS(=O)(=O)c1cc(C(=O)O)c(NCc2ccco2)cc1Cl [furosemide]
Subsidence of symptoms (cough, headache, body ache, fever, breathing difficulties) [1]: subsided on the second day
Total recovery of the subject [1]: totally recovered by night on the third day
Infection status per Government hospital certificate, a while after treatment (after furosemide orally for 3 days): negative status for the infection
